What was measured:
BIR3 domain of XIAP = target: T1, BIR3 domain of XIAP (Homo sapiens, UniProt P98170); assay: TR-FRET assay for BIR3 (inhibition of binding of XIAP BIR3 domain to SMAC-derived Peptide A); settings: 6x Histidine-tagged BIR3 domain (amino acids 241-356 of XIAP) 10 nM, Peptide A 20 nM
T1 construct: BIR3 domain, corresponding to amino acids 241-356 of XIAP
Method in brief: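 His6-tagged XIAP BIR3 (aa 241-356, 10 nM) was mixed with 20 nM biotinylated SMAC-derived peptide in 50 mM Tris-Cl pH 7.5, 100 mM NaCl, 1 mM DTT, 0.1 mg/mL BSA and incubated 45 min at 37 °C. Eu-streptavidin (1.5 nM) and APC anti-His (15 nM) were added, with TR-FRET read 1 h later at RT. IC50 came from % inhibition over 10 serial concentrations.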

BIR2 domain of XIAP = target: T2, BIR2 domain of XIAP (Homo sapiens, UniProt P98170, C202A/C213G); assay: TR-FRET assay for BIR2 (inhibition of binding of XIAP BIR2 domain to SMAC-derived Peptide A); settings: 6x Histidine-tagged BIR2 domain (amino acids 124-240 of XIAP) 10 nM, Peptide A 20 nM
T2 construct: 6× Histidine-tagged BIR2 domain, corresponding to amino acids 124-240 of XIAP
Method in brief: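 Inhibition of binding of the XIAP BIR2 domain (C202A/C213G) to biotinylated SMAC-derived Peptide A was measured. TR-FRET signal was read after 1 h at room temperature.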

T1 sequence (P98170 with tags, fused parts or gaps): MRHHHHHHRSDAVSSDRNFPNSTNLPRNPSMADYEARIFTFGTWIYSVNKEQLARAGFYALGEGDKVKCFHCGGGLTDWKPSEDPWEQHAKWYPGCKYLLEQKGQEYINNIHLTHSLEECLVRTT
T2 sequence (P98170 with tags, fused parts or gaps C202A/C213G): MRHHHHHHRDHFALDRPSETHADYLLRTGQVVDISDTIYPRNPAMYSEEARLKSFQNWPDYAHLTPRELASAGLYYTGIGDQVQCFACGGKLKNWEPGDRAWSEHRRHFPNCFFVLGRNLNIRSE

Row | SMILES | IC50 (BIR3 domain of XIAP) [nM] | IC50 (BIR2 domain of XIAP) [nM]
1 | CN[C@@H](C)C(=O)N[C@H](C(=O)N1c2ncccc2C[C@H]1C(=O)Nc1ccc(C(=O)OC)cc1F)C(C)C [Example 49, 3-Fluoro-4-({(S)-1-[(S)-3-methyl-2-((S)-2-methylamino-propionylamino)-butyryl]-2,3-dihydro-1H-pyrrolo[2,3-b]pyridine-2-carbonyl}-amino)-benzoic acid methyl ester] | > 54800 | 102
2 | CCc1ccccc1NC(=O)[C@@H]1Cc2cccnc2N1C(=O)[C@@H](NC(=O)[C@H](C)NC)C(C)C [Example 40, (S)-1-[(S)-3-Methyl-2-((S)-2-methylamino-propionylamino)-butyryl]-2,3-dihydro-1H-pyrrolo[2,3-b]pyridine-2-carboxylic acid (2-ethyl-phenyl)-amide] | > 54800 | 104
3 | CN[C@@H](C)C(=O)N[C@H](C(=O)N1c2ncccc2C[C@H]1C(=O)Nc1cccc(F)c1)C(C)C [Example 39, (S)-1-[(S)-3-Methyl-2-((S)-2-methylamino-propionylamino)-butyryl]-2,3-dihydro-1H-pyrrolo[2,3-b]pyridine-2-carboxylic acid (3-fluoro-phenyl)-amide] | > 54800 | 226
4 | C[C@H](NCCO)C(=O)N[C@H](C(=O)N1c2ncccc2C[C@H]1C(=O)Nc1ccccc1)C1CCCCC1 [Example 91, (S)-1-{(S)-2-Cyclohexyl-2-[(S)-2-(2-hydroxy-ethylamino)-propionylamino]-acetyl}-2,3-dihydro-1H-pyrrolo[2,3-b]pyridine-2-carboxylic acid phenylamide] | > 54800 | 155
5 | CN[C@@H](C)C(=O)N[C@H](C(=O)N1c2ncccc2C[C@H]1C(=O)Nc1c(Cl)cccc1Cl)C(C)C [Example 74, (S)-1-[(S)-3-Methyl-2-((S)-2-methylamino-propionylamino)-butyryl]-2,3-dihydro-1H-pyrrolo[2,3-b]pyridine-2-carboxylic acid (2,6-dichloro-phenyl)-amide] | > 54800 | 16.6
6 | CCNC(=O)C1Cc2cccnc2N1C(=O)[C@@H](NC(=O)[C@H](C)NC)C1CCCCC1 (stereo partly drawn) [Example 4, (R,S)-1-[(S)-2-Cyclohexyl-2-((S)-2-methylamino-propionylamino)-acetyl]-2,3-dihydro-1H-pyrrolo[2,3-b]pyridine-2-carboxylic acid ethylamide] | > 54800 | 2120
7 | CN[C@@H](C)C(=O)N[C@H](C(=O)N1c2ncccc2C[C@@H]1C(=O)Nc1cnccc1C)C(C)C [Example 20, (R)-1-[(S)-3-Methyl-2-((S)-2-methylamino-propionylamino)-butyryl]-2,3-dihydro-1H-pyrrolo[2,3-b]pyridine-2-carboxylic acid (4-methyl-pyridin-3-yl)-amide] | > 54800 | 1360
8 | CN[C@@H](C)C(=O)N[C@H](C(=O)N1c2ncccc2C[C@H]1C(=O)Nc1cccc2ccccc12)C(C)C [Example 19, (S)-1-[(S)-3-Methyl-2-((S)-2-methylamino-propionylamino)-butyryl]-2,3-dihydro-1H-pyrrolo[2,3-b]pyridine-2-carboxylic acid naphthalen-1-ylamide] | 35100 | 54.5
9 | CN[C@@H](C)C(=O)N[C@H](C(=O)N1c2ncccc2C[C@H]1C(=O)Nc1ccccc1F)C(C)C [Example 36, (S)-1-[(S)-3-Methyl-2-((S)-2-methylamino-propionylamino)-butyryl]-2,3-dihydro-1H-pyrrolo[2,3-b]pyridine-2-carboxylic acid (2-fluoro-phenyl)-amide] | > 54800 | 12.7
10 | CN[C@@H](C)C(=O)N[C@@H](CCS(C)(=O)=O)C(=O)N1c2ncccc2C[C@@H]1C(=O)Nc1ccccc1 [Example 97, 1-[(S)-4-Methanesulfonyl-2-((S)-2-methylamino-propionylamino)-butyryl]-2,3-dihydro-1H-pyrrolo[2,3-b]pyridine-2-carboxylic acid phenylamide] | > 54800 | 3060
11 | CN[C@@H](C)C(=O)N[C@H](C(=O)N1c2ncccc2C[C@H]1C(=O)Nc1cncnc1)C(C)C [Example 56, (S)-1-[(S)-3-Methyl-2-((S)-2-methylamino-propionylamino)-butyryl]-2,3-dihydro-1H-pyrrolo[2,3-b]pyridine-2-carboxylic acid pyrimidin-5-ylamide] | > 54800 | 1630
12 | CC(C)[C@H](NC(=O)[C@H](C)NCCS(C)(=O)=O)C(=O)N1c2ncccc2C[C@H]1C(=O)Nc1c(F)cccc1F [Example 92, (S)-1-{(S)-2-[(S)-2-(2-Methanesulfonyl-ethylamino)-propionylamino]-3-methyl-butyryl}-2,3-dihydro-1H-pyrrolo[2,3-b]pyridine-2-carboxylic acid (2,6-difluoro-phenyl)-amide] | > 54800 | 2570
13 | CN[C@@H](C)C(=O)N[C@H](C(=O)N1c2ncccc2C[C@H]1C(=O)NCc1cc(Cl)ccc1C)C(C)C [Example 17, (S)-1-[(S)-3-Methyl-2-((S)-2-methylamino-propionylamino)-butyryl]-2,3-dihydro-1H-pyrrolo[2,3-b]pyridine-2-carboxylic acid 5-chloro-2-methyl-benzylamide] | 24300 | 392
14 | CN[C@@H](C)C(=O)N[C@H](C(=O)N1c2ncccc2C[C@H]1C(=O)NC(C)(C)c1ccccc1)C(C)C [Example 54, (S)-1-[(S)-3-Methyl-2-((S)-2-methylamino-propionylamino)-butyryl]-2,3-dihydro-1H-pyrrolo[2,3-b]pyridine-2-carboxylic acid (1-methyl-1-phenyl-ethyl)-amide] | 47400 | 4730
15 | CN[C@@H](C)C(=O)N[C@H](C(=O)N1c2ncccc2C[C@H]1C(=O)Nc1c(C)cccc1Cl)C(C)C [Example 71, (S)-1-[(S)-3-Methyl-2-((S)-2-methylamino-propionylamino)-butyryl]-2,3-dihydro-1H-pyrrolo[2,3-b]pyridine-2-carboxylic acid (2-chloro-6-methyl-phenyl)-amide] | > 54800 | 19.2
16 | CN[C@@H](C)C(=O)N[C@H](C(=O)N1c2ncccc2C[C@@H]1C(=O)Nc1ccccc1Oc1ccccc1)C(C)C [Example 31, (R)-1-[(S)-3-Methyl-2-((S)-2-methylamino-propionylamino)-butyryl]-2,3-dihydro-1H-pyrrolo[2,3-b]pyridine-2-carboxylic acid (2-phenoxy-phenyl)-amide] | > 54800 | 11700
17 | CN[C@@H](C)C(=O)N[C@H](C(=O)N1c2ncccc2C[C@H]1C(=O)Nc1ccccc1C)C(C)C [Example 14, (S)-1-[(S)-3-Methyl-2-((S)-2-methylamino-propionylamino)-butyryl]-2,3-dihydro-1H-pyrrolo[2,3-b]pyridine-2-carboxylic acid o-tolylamide] | > 54800 | 33.5
18 | CC(C)[C@H](NC(=O)[C@H](C)NCCO)C(=O)N1c2ncccc2C[C@H]1C(=O)Nc1ccccc1 [Example 89, (S)-1-{(S)-2-[(S)-2-(2-Hydroxy-ethylamino)-propionylamino]-3-methyl-butyryl}-2,3-dihydro-1H-pyrrolo[2,3-b]pyridine-2-carboxylic acid phenylamide] | > 54800 | 266
19 | CN[C@@H](C)C(=O)N[C@H](C(=O)N1c2ncccc2C[C@H]1C(=O)NCc1cc(F)ccc1C)C(C)C [Example 55, (S)-1-[(S)-3-Methyl-2-((S)-2-methylamino-propionylamino)-butyryl]-2,3-dihydro-1H-pyrrolo[2,3-b]pyridine-2-carboxylic acid 5-fluoro-2-methyl-benzylamide] | 35300 | 139
20 | CN[C@@H](C)C(=O)N[C@H](C(=O)N1c2ncccc2C[C@H]1C(=O)Nc1ccc(C2CCNCC2)cc1)C(C)C [Example 41, (S)-1-[(S)-3-Methyl-2-((S)-2-methylamino-propionylamino)-butyryl]-2,3-dihydro-1H-pyrrolo[2,3-b]pyridine-2-carboxylic acid (4-piperidin-4-yl-phenyl)-amide] | > 54800 | 701
21 | CN[C@@H](C)C(=O)N[C@H](C(=O)N1c2ncccc2C[C@@H]1C(=O)Nc1c(F)cccc1F)C(C)C [Example 29, (R)-1-[(S)-3-Methyl-2-((S)-2-methylamino-propionylamino)-butyryl]-2,3-dihydro-1H-pyrrolo[2,3-b]pyridine-2-carboxylic acid (2,6-difluoro-phenyl)-amide] | > 54800 | 421
22 | CN[C@@H](C)C(=O)N[C@H](C(=O)N1c2ncccc2C[C@H]1C(=O)Nc1cccc(F)c1F)C(C)C [Example 60, (S)-1-[(S)-3-Methyl-2-((S)-2-methylamino-propionylamino)-butyryl]-2,3-dihydro-1H-pyrrolo[2,3-b]pyridine-2-carboxylic acid (2,3-difluoro-phenyl)-amide] | > 54800 | 38.2
23 | CN[C@@H](C)C(=O)N[C@H](C(=O)N1c2ncccc2C[C@H]1C(=O)Nc1cc(C)ccc1F)C(C)C [Example 44, (S)-1-[(S)-3-Methyl-2-((S)-2-methylamino-propionylamino)-butyryl]-2,3-dihydro-1H-pyrrolo[2,3-b]pyridine-2-carboxylic acid (2-fluoro-5-methyl-phenyl)-amide] | > 54800 | 3.8

Source: patent publication US9309248B2, “Azaindolines” (Hoffmann-La Roche Inc., priority 2012, dated 2016)
